Among the test systems are LOX IMVI melanoma; NCI-H226 lung; EKVX NSCLC; SNB-75 CNS; TK-10 renal; OVCAR-8 ovarian; M19-MEL melanoma; OVCAR-5 ovarian; HCT-116 colon; SNB-78 CNS.
Holding throughout (assay): NCI-60 cell line screen, 48 h

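Cultured in 96-well plates, cells were exposed to test compound for 48 hours across five concentrations. GI50 = concentration required for 50% inhibition of growth. At the TGI there is no net growth.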

With `O=C(c1ccc([N+](=O)[O-])cc1[N+](=O)[O-])N(/N=C/C=C/c1ccccc1)c1nnc(-c2ccccc2)c(-c2ccccc2)n1`, the TGI with LOX IMVI melanoma was greater than 100 µM; with NCI-H226 lung, greater than 100 µM; with EKVX NSCLC, greater than 100 µM; in the test with SNB-75 CNS it was 86.8 µM; in the test with TK-10 renal it was 78 µM; in the test on OVCAR-8 ovarian, 67.8 µM. Further, the TGI in the test with M19-MEL melanoma and in the test on OVCAR-5 ovarian was greater than 100 µM throughout.
For `COC(=N)c1csc(C2OC(CO)C(O)C2O)n1` (stereo unspecified), the TGI with LOX IMVI melanoma, in the test with NCI-H226 lung, with HCT-116 colon, in the test with EKVX NSCLC, in the test with TK-10 renal and in the test on OVCAR-8 ovarian was greater than 100 µM each time. Further, the TGI in the test on M19-MEL melanoma, with SNB-78 CNS and in the test with OVCAR-5 ovarian was greater than 100 µM throughout.
With `C[N+](C)(C)CC(=O)N/N=C(/Cc1cc(=O)oc2cc(O)ccc12)C(=O)Nc1ccc(Cl)cc1`, the TGI in the test on HCT-116 colon, in the test with EKVX NSCLC, in the test with TK-10 renal, in the test with OVCAR-8 ovarian, in the test on M19-MEL melanoma and in the test on OVCAR-5 ovarian was greater than 100 µM throughout.
`CCCCCCCCc1cc2c(O)c(c1)Cc1cc(CCCCCCCC)cc(c1O)Cc1cc(CCCCCCCC)cc(c1O)Cc1cc(CCCCCCCC)cc(c1O)Cc1cc(CCCCCCCC)cc(c1O)Cc1cc(CCCCCCCC)cc(c1O)C2`: the TGI with LOX IMVI melanoma, in the test with HCT-116 colon, in the test with SNB-75 CNS, in the test on TK-10 renal, in the test with OVCAR-8 ovarian and with SNB-78 CNS was greater than 100 µM in each case. In the test on OVCAR-5 ovarian, this compound had a TGI greater than 100 µM.
In the case of `COc1ccc(CNc2c3ccccc3nc3ccccc23)cc1F`, the GI50 in the test on LOX IMVI melanoma is 1760 nM; in the test on NCI-H226 lung, 2850 nM; in the test with HCT-116 colon, 2920 nM; in the test with EKVX NSCLC it was 3.59 µM; in the test with SNB-75 CNS it was 3.21 µM; with TK-10 renal it was 3550 nM. For the same compound, the GI50 in the test on OVCAR-8 ovarian and in the test on OVCAR-5 ovarian was 3.52 µM throughout. Besides, the TGI with LOX IMVI melanoma was determined as 3.63 µM; in the test on NCI-H226 lung it was 10.4 µM; in the test with HCT-116 colon, 12.3 µM; in the test with EKVX NSCLC, 14.5 µM; in the test with SNB-75 CNS, 15.2 µM; in the test with TK-10 renal, 15.7 µM. Besides, the TGI in the test with OVCAR-8 ovarian is 19.4 µM; with OVCAR-5 ovarian, 13.5 µM.
For `CC1=C(C(=O)Nc2ccccc2)C(c2ccc(Cl)c(Cl)c2)C(C(=O)Nc2ccccc2)=C(C)N1`, the TGI worked out at 28.5 µM in the test with LOX IMVI melanoma; 22.3 µM in the test with HCT-116 colon; 30.9 µM with EKVX NSCLC; 35 µM in the test with SNB-75 CNS; 75.2 µM with TK-10 renal; 27.9 µM with OVCAR-8 ovarian. Further, the TGI in the test with M19-MEL melanoma worked out at 25.6 µM; in the test with SNB-78 CNS, 53.8 µM; in the test on OVCAR-5 ovarian, 32.4 µM.
For `CC(C)C1CN(C(=O)OCc2ccccc2)C2N1C(=O)C2(C)OCc1ccccc1` (stereo unspecified), the TGI is greater than 100 µM with LOX IMVI melanoma; 81 µM in the test with NCI-H226 lung; greater than 100 µM with HCT-116 colon; greater than 100 µM with EKVX NSCLC; 59.5 µM in the test on SNB-75 CNS; greater than 100 µM with TK-10 renal. Besides, the TGI in the test on OVCAR-8 ovarian and with M19-MEL melanoma was greater than 100 µM each time.
On to `NNc1ncnc2nc[nH]c12`, for which the GI50 in the test on LOX IMVI melanoma was 2890 nM; in the test on NCI-H226 lung it was 5880 nM; with HCT-116 colon, 2250 nM; in the test with EKVX NSCLC it was 7.17 µM; in the test with SNB-75 CNS, 24.7 µM; in the test with TK-10 renal it was 2940 nM. In addition, the GI50 in the test with OVCAR-8 ovarian was 5.09 µM; in the test with OVCAR-5 ovarian, 3.18 µM. In addition, the TGI in the test with LOX IMVI melanoma was greater than 100 µM; with NCI-H226 lung, greater than 100 µM; in the test on HCT-116 colon it was 15.9 µM; with EKVX NSCLC, greater than 100 µM; with SNB-75 CNS, greater than 100 µM; in the test with TK-10 renal it was greater than 100 µM. Moreover, the TGI in the test with OVCAR-8 ovarian was greater than 100 µM; with OVCAR-5 ovarian it was greater than 40.4 µM.
Consider `CCOC(=O)Nc1c(C)nc2ccccn12`, for which the GI50 with LOX IMVI melanoma was greater than 100000 nM; with NCI-H226 lung, greater than 100000 nM; in the test on HCT-116 colon, greater than 100000 nM; in the test with EKVX NSCLC it was greater than 100 µM; in the test with SNB-75 CNS it was greater than 100 µM; with TK-10 renal, greater than 100000 nM. In addition, the GI50 with OVCAR-8 ovarian and in the test with OVCAR-5 ovarian was greater than 100 µM in each case. In addition, the TGI with LOX IMVI melanoma, in the test with NCI-H226 lung, in the test with HCT-116 colon, with EKVX NSCLC, in the test with SNB-75 CNS and in the test with TK-10 renal was greater than 100 µM in each case. Also, the TGI in the test on OVCAR-8 ovarian and in the test with OVCAR-5 ovarian was greater than 100 µM each time.
`CC[C@]1(O)C[C@H]2CN(CCc3c([nH]c4ccccc34)C(C(=O)OC)(c3cc4c(cc3OC)N(C)[C@H]3[C@@](O)(C(=O)OC)[C@H](OC(C)=O)[C@]5(CC)[C@@H]6C[C@@H]6CN6CC[C@]43[C@@H]65)C2)C1` (stereo partly specified): the GI50 in the test on LOX IMVI melanoma is 2.73 nM; in the test on NCI-H226 lung, 23.1 nM; in the test with HCT-116 colon, 3.48 nM; in the test with EKVX NSCLC, 0.00688 µM; in the test on SNB-75 CNS, 0.00437 µM; in the test with TK-10 renal it was 40.4 nM. Further, the GI50 with OVCAR-8 ovarian was 0.00688 µM; with OVCAR-5 ovarian it was 0.00974 µM. Besides, the TGI was greater than 10.3 µM in the test with LOX IMVI melanoma; greater than 1.59 µM in the test on NCI-H226 lung; 4.13 µM with HCT-116 colon; greater than 14.3 µM in the test with EKVX NSCLC; 6.36 µM in the test with SNB-75 CNS; 5.62 µM in the test on TK-10 renal. For the same compound, the TGI was 0.168 µM with OVCAR-8 ovarian and greater than 6.67 µM in the test on OVCAR-5 ovarian.
Turning to `COc1c(C)c(OCC=C(C)C)cc(CO)c1CO`, the TGI in the test with LOX IMVI melanoma, in the test on NCI-H226 lung, with HCT-116 colon, with EKVX NSCLC, in the test with SNB-75 CNS and with TK-10 renal was greater than 100 µM in each case. Also, the TGI with OVCAR-8 ovarian and in the test on OVCAR-5 ovarian was greater than 100 µM each time.
For `O=[N+]([O-])c1ccccc1N=Nc1c(O)[nH]c2c(Cl)cc(Cl)cc12`, the TGI in the test on LOX IMVI melanoma is greater than 100 µM; with NCI-H226 lung, greater than 100 µM; with HCT-116 colon, greater than 100 µM; in the test with EKVX NSCLC, 99.5 µM; with SNB-75 CNS it was 25.6 µM; in the test with TK-10 renal, 96.2 µM. Further, the TGI in the test on OVCAR-8 ovarian and in the test with OVCAR-5 ovarian was greater than 100 µM in each case.
As for `O=c1[nH]c(=O)n(C2CC(O)C(CO)O2)cc1OS(=O)(=O)C(F)(F)F` (stereo unspecified), the TGI with LOX IMVI melanoma, in the test on NCI-H226 lung, in the test on HCT-116 colon, in the test with EKVX NSCLC, in the test with SNB-75 CNS and in the test with TK-10 renal was greater than 100 µM each time. Also, the TGI in the test with OVCAR-8 ovarian, in the test on M19-MEL melanoma and in the test on OVCAR-5 ovarian was greater than 100 µM each time.

The record behind these values is PubChem BioAssay (NCI).
